Data from US6596741B2, “Biaryl ether derivatives useful as monoamine reuptake inhibitors” (Pfizer Inc, priority 1999, dated 2003).
Structures can show the parent of a compound that is named as a salt.

Row | Compound | melting point
1 | CNCc1cc(-c2cccs2)ccc1Oc1ccc(Cl)c(Cl)c1 (as salt: HCl) [Example 10, [2-(3,4-Dichlorophenoxy)-5-thiophen-2-ylbenzyl]-methylamine] | 207 to 209 °C
2 | CNCc1cc(-c2ccco2)ccc1Oc1ccc(Cl)c(Cl)c1 (as salt: HCl) (hydrate or solvate) [Example 6, [2-(3,4-Dichlorophenoxy)-5-furan-2-ylbenzyl]-methylamine] | 188 to 191 °C
3 | CNC(C)c1cc(N2CCCC2=O)ccc1Oc1ccc(Cl)c(Cl)c1.Cl (stereo not shown) | 195 to 200 °C
4 | CNCc1cc(-n2ccc(N)n2)ccc1Oc1ccc(Cl)c(Cl)c1.Cl.Cl | 225 to 233 °C
5 | CNCc1cc(N2CCCC2=O)ccc1Oc1ccc(Cl)c(Cl)c1 (as salt: HCl) [Example 19, 1-[4-(3,4-Dichlorophenoxy)-3-(methylaminomethyl)phenyl]-pyrrolidin-2-one] | 166 to 170 °C

The next lines start with the values.

Row | melting point | Compound
6 | 168 to 171 °C | CNCc1cc(-c2cccnc2)ccc1Oc1ccc(Cl)c(Cl)c1 (as salt: HCl) [Example 13, [2-(3,4-Dichlorophenoxy)-5-pyridin-3-ylbenzyl]-methylamine]
7 | 181 to 184 °C | CNCc1ccc(-c2ccsc2)cc1Oc1ccc(Cl)c(Cl)c1 (as salt: HCl) (hydrate or solvate) [Example 9, [2-(3,4-Dichlorophenoxy)-4-thiophen-3-ylbenzyl]-methylamine]
8 | 179 to 181 °C | CNCc1cc(-c2ccncc2)ccc1Oc1ccc(Cl)c(Cl)c1 (as salt: HCl) (hydrate or solvate) [Example 14, [2-(3,4-Dichlorophenoxy)-5-pyridin-4-ylbenzyl]-methylamine]
9 | 129 to 134 °C | CNCc1ccc(-c2ccco2)cc1Oc1ccc(Cl)c(Cl)c1 (hydrate or solvate) [Example 7, [2-(3,4-Dichlorophenoxy)-4-furan-2-ylbenzyl]-methylamine]
10 | 169 to 172 °C | CNCc1cc(-c2ccsc2)ccc1Oc1ccc(Cl)c(Cl)c1 (as salt: HCl) [Example 8, [2-(3,4-Dichlorophenoxy)-5-thiophen-3-ylbenzyl]-methylamine]
11 | 186 to 194 °C | CNCc1ccc(-c2ccccc2)cc1Oc1ccc(Cl)c(Cl)c1 (as salt: HCl) [Example 2, [3-(3,4-Dichlorophenoxy)-biphenyl-4-ylmethyl]-methylamine]
12 | 180 to 183 °C | CNCc1ccc(-c2cccs2)cc1Oc1ccc(Cl)c(Cl)c1 (as salt: HCl) [Example 11, [2-(3,4-Dichlorophenoxy)-4-thiophen-2-ylbenzyl]-methylamine]
13 | 208 to 210 °C | CNCc1cc(-c2ccc(C)cc2)ccc1Oc1ccc(Cl)c(Cl)c1 (as salt: HCl) (hydrate or solvate) [Example 3, [4-(3,4-Dichlorophenoxy)-4′-methyl-biphenyl-3-ylmethyl]-methylamine]
